# In patent publication US10716773B2, “Compositions comprising 15-HEPE and methods of treating or preventing cancer and neurologic disease” (Afimmune Limited, priority 2015, dated 2020):
# Where “and” joins values, the source holds several entries; their conditions need not be identical. Equal values may be shown once.
# Tests used:
# caspase-3/7 = assay: Staurosporine-induced caspase-3/7 activity in NHDF, measured in cell lysates with fluorogenic substrate Ac-DEVD-AMC; format: cell-based, human; details: for % inhibition / % stimulated control / Normalized data: Mean (caspase-3/7 activity/proteins) / Caspase-3/7 activity (Fluorescence 380 nm/440 nm) / Caspase-3/7 activity - Background (Fluorescence 380 nm/440 nm) / Caspese-3/7 activity/proteins / effect on caspase-3/7 activity (in words): staurosporine-stimulated NHDF; for Caspase-3/7 activity (Fluorescence 380 nm/440 nm) / Caspase-3/7 activity - Background (Fluorescence 380 nm/440 nm) / Caspese-3/7 activity/proteins: single replicates
# Experimental: The potential inhibitory effect of compounds 15(S)-HEPE EE and EPA EE was evaluated on staurosporine-induced caspase activation in normal human dermal fibroblasts (NHDF). […] Normal human dermal fibroblasts (NHDF) were used at the 8th passage. […] Fibroblasts were seeded in 24-well plates and cultured for 24 hours in culture medium. The medium was then removed and replaced by assay medium containing or not (control) the test compounds and cells were pre-incubated for 24 hours. […] The cells were then incubated for 24 hours. Non-stimulated controls (without inducer) were performed in parallel. All experimental conditions were performed in n=3. […] Enzyme activity assay and protein quantification assay were performed in separated plates due to the fact that DTT used in the lysis buffer for caspase activity interferes with protein quantification. […] Lysis buffer: HEPES buffer (pH 7.4) containing EDTA, Triton X-100, NP-40 and DTT Assay Buffer: HEPES buffer (pH 7.4) containing NaCl, EDTA, NP-40, glycerol and DTT Substrate: Ac-DEVD-AMC, tested at 10 μM (stock solution at 1.5 mM in DMSO) Reference inhibitor: […] Ac-DEVD-AMC is a synthetic tetrapeptide fluorogenic substrate for caspase-3 and caspase-7 and contains the amino acid sequence of the PARP cleavage site at […]. […] Enzymes cleave the tetrapeptide between D and AMC resulting in the release of fluorogenic AMC, which can be quantified with a spectrofluorometer. […] In parallel, an additional control (assay buffer containing the substrate) was also performed to determine the background signal. At the end of incubation, the fluorescence intensity emitted by the reaction product (cleaved Ac-DEVD-AMC) was measured at wavelengths λex 380 nm and λem 440 nm using a spectrofluorimeter (SPECTRAmax® Gemini, Molecular Devices).
# [1] = system: normal human dermal fibroblasts (NHDF); assay: MTT reduction assay and observation of the cell layers: viability of fibroblasts after 48 hours of incubation; format: cell-based; details: for Visability (%): single replicates; as to Morpholigical observations: key: +: normal population; +/−: growth reduction; −: toxicity; 0: cell mortality; grains of compound; opacity of the compound; *: morphological modification; agglutinated cells
# Experimental: Normal human dermal fibroblasts (NHDF) were used at the 8th passage. Cells were cultured at 37° C., 5% CO2 in DMEM supplemented with L-glutamine 2 mM, 50 U/ml Penicillin, 50 μg/ml Streptomycin and 10% Foetal calf serum (FCS).
smiles,measurement,setting,value
CN[C@@H]1C[C@H]2O[C@@](C)([C@@H]1OC)n1c3ccccc3c3c4c(c5c6ccccc6n2c5c31)C(=O)NC4 [staurosporine],"increase of caspase-3/7 activity normalized versus protein quantity, staurosporine-stimulated versus non-stimulated conditions","caspase-3/7; staurosporine 100 nM, NHDF",10 fold
CC/C=C\C/C=C\C/C=C\C/C=C\C/C=C\CCCC(=O)OCC [EPA EE],Morpholigical observations,[1]; 0.001 μg/ml,+
same,Visability (%) Mean,[1]; 0.001 μg/ml,100%
same,Visability (%),[1]; 0.001 μg/ml,99% and 97% and 104%
same,Morpholigical observations,[1]; 0.01 μg/ml,+
same,Visability (%) Mean,[1]; 0.01 μg/ml,98%
same,Visability (%),[1]; 0.01 μg/ml,101% and 94% and 98%
same,Morpholigical observations,[1]; 0.1 μg/ml,+
same,Visability (%) Mean,[1]; 0.1 μg/ml,99%
same,Visability (%),[1]; 0.1 μg/ml,99% (2×) and 98%
same,Morpholigical observations,[1]; 1 μg/ml,+
same,Visability (%) Mean,[1]; 1 μg/ml,97%
same,Visability (%),[1]; 1 μg/ml,95% (2×) and 100%
same,Morpholigical observations,[1]; 10 μg/ml,+
same,Visability (%) Mean,[1]; 10 μg/ml,97%
same,Visability (%),[1]; 10 μg/ml,94% and 98% and 100%
same,Morpholigical observations,[1]; 30 μg/ml,+
same,Visability (%) Mean,[1]; 30 μg/ml,96%
same,Visability (%),[1]; 30 μg/ml,99% and 95% and 93%
same,Morpholigical observations,[1]; 100 μg/ml,+
same,Visability (%) Mean,[1]; 100 μg/ml,100%
same,Visability (%),[1]; 100 μg/ml,102% and 98% and 100%
same,Morpholigical observations,[1]; 300 μg/ml,+
same,Visability (%) Mean,[1]; 300 μg/ml,106%
same,Visability (%),[1]; 300 μg/ml,105% and 107% and 106%
same,% inhibition,caspase-3/7; 0.001 μg/ml,−31%
same,% stimulated control,caspase-3/7; 0.001 μg/ml,128%
same,Normalized data: Mean (caspase-3/7 activity/proteins),caspase-3/7; 0.001 μg/ml,113173 AU/mg
same,Caspase-3/7 activity (Fluorescence 380 nm/440 nm),caspase-3/7; 0.001 μg/ml,1457 AU and 1667 AU and 1637 AU
same,Caspase-3/7 activity - Background (Fluorescence 380 nm/440 nm),caspase-3/7; 0.001 μg/ml,1140 AU and 1350 AU and 1320 AU
same,Caspese-3/7 activity/proteins,caspase-3/7; 0.001 μg/ml,100237 AU/mg and 128199 AU/mg and 111084 AU/mg
same,% inhibition,caspase-3/7; 0.01 μg/ml,−1%
same,% stimulated control,caspase-3/7; 0.01 μg/ml,101%
same,Normalized data: Mean (caspase-3/7 activity/proteins),caspase-3/7; 0.01 μg/ml,89425 AU/mg
same,Caspase-3/7 activity (Fluorescence 380 nm/440 nm),caspase-3/7; 0.01 μg/ml,1359 AU and 1476 AU and 1472 AU
same,Caspase-3/7 activity - Background (Fluorescence 380 nm/440 nm),caspase-3/7; 0.01 μg/ml,1042 AU and 1159 AU and 1155 AU
same,Caspese-3/7 activity/proteins,caspase-3/7; 0.01 μg/ml,89522 AU/mg and 89043 AU/mg and 89708 AU/mg
same,% inhibition,caspase-3/7; 0.1 μg/ml,5%
same,% stimulated control,caspase-3/7; 0.1 μg/ml,95%
same,Normalized data: Mean (caspase-3/7 activity/proteins),caspase-3/7; 0.1 μg/ml,84209 AU/mg
same,Caspase-3/7 activity (Fluorescence 380 nm/440 nm),caspase-3/7; 0.1 μg/ml,1474 AU and 1382 AU and 1558 AU
same,Caspase-3/7 activity - Background (Fluorescence 380 nm/440 nm),caspase-3/7; 0.1 μg/ml,1157 AU and 1065 AU and 1241 AU
same,Caspese-3/7 activity/proteins,caspase-3/7; 0.1 μg/ml,83312 AU/mg and 79809 AU/mg and 89506 AU/mg
same,% inhibition,caspase-3/7; 1 μg/ml,−3%
same,% stimulated control,caspase-3/7; 1 μg/ml,103%
same,Normalized data: Mean (caspase-3/7 activity/proteins),caspase-3/7; 1 μg/ml,90527 AU/mg
same,Caspase-3/7 activity (Fluorescence 380 nm/440 nm),caspase-3/7; 1 μg/ml,1423 AU and 1604 AU and 1486 AU
same,Caspase-3/7 activity - Background (Fluorescence 380 nm/440 nm),caspase-3/7; 1 μg/ml,1106 AU and 1287 AU and 1169 AU
same,Caspese-3/7 activity/proteins,caspase-3/7; 1 μg/ml,87358 AU/mg and 96851 AU/mg and 87370 AU/mg
same,% inhibition,caspase-3/7; 10 μg/ml,2%
same,% stimulated control,caspase-3/7; 10 μg/ml,98%
same,Normalized data: Mean (caspase-3/7 activity/proteins),caspase-3/7; 10 μg/ml,86723 AU/mg
same,Caspase-3/7 activity (Fluorescence 380 nm/440 nm),caspase-3/7; 10 μg/ml,1335 AU and 1264 AU and 1458 AU
same,Caspase-3/7 activity - Background (Fluorescence 380 nm/440 nm),caspase-3/7; 10 μg/ml,1018 AU and 947 AU and 1141 AU
same,Caspese-3/7 activity/proteins,caspase-3/7; 10 μg/ml,78044 AU/mg and 76787 AU/mg and 105337 AU/mg
same,% inhibition,caspase-3/7; 100 μg/ml,61%
same,% stimulated control,caspase-3/7; 100 μg/ml,45%
same,Normalized data: Mean (caspase-3/7 activity/proteins),caspase-3/7; 100 μg/ml,39319 AU/mg
same,effect on caspase-3/7 activity (in words),caspase-3/7; 100 μg/ml,clear inhibitory effect
same,Caspase-3/7 activity (Fluorescence 380 nm/440 nm),caspase-3/7; 100 μg/ml,807 AU and 843 AU and 1068 AU
same,Caspase-3/7 activity - Background (Fluorescence 380 nm/440 nm),caspase-3/7; 100 μg/ml,490 AU and 526 AU and 751 AU
same,Caspese-3/7 activity/proteins,caspase-3/7; 100 μg/ml,29572 AU/mg and 37623 AU/mg and 50763 AU/mg
same,effect on caspase-3/7 activity (in words),caspase-3/7; tested from 0.001 to 10 μg/ml,no effect
